Assay results published in patent publication US7118895B2, “Process for producing aglycon by using diglycosidase and flavor-improved food containing the aglycon and converting agent to be used in the process” (Amano Enzyme Inc., priority 2000, dated 2006).

Columns and labels:
[1] = test system: Diglycosidase derived from P. multicolor; assay: Reactivity toward various isoflavone glycosides (HPLC); type: biochemical, Penicillium multicolor; design: glucoside / aglycon: unit not given here; details: for aglycon / glucoside: 55 °C, pH 4.0
Procedure: (§1) Diglycosidase was diluted with an acetate buffer of pH 4.0 to prepare a 0.75 AU/mL enzyme solution. As references, a similar operation was conducted using β-glucosidase (manufactured by Fluka) derived from Aspergillus niger, β-glucosidase (manufactured by Sigma) derived from almond, β-xylosidase derived from pectinase G (manufactured by Amano Enzyme Inc.). Each of purified products of isoflavone glycosides (glycitin, acetylglycitin, malonylglycitin, daidzin, acetyldaidzin, malonyldaidzin, genistin, acetylgenistin, malonylgenistin, all manufactured by Nacalai Tesque, Inc.) was dissolved in methanol to prepare each 2 mM substrate solution. The reaction was carried out by mixing 10 μL of a substrate solution, 200 μL of 20 mM acetate buffer (pH 4.0), and 40 μL of each purified enzyme solution at a total liquid volume of 250 μL. The reaction was carried out at 55° C. and isolation of an aglycon isoflavone from an isoflavone glycoside in the reaction mixture was detected by HLPC at 0, 1, 3, and 6 hours of the reaction.
(§2) To the reaction mixture was added 700 μL of ethanol, followed by stirring and ultrasonication. After centrifugation at 15,000 rpm and 4° C. for 10 minutes, the supernatant was filtered through a filter and then the filtrate was applied to HPLC.
(§3) The isoflavone glycoside and aglycon isoflavone contained in the filtrate was separated and detected by a high performance liquid chromatography (HPLC, Shimadzu CLASS LC-10 system) using TOSOH TSK gel ODS-80TM column (manufactured by Tosoh Corporation). […] The absorbance at 260 nm was detected by a UV detector (Shimadzu, SPD-10AV). Using purified products (manufactured by Nacalai Tesque, Inc.) of the above isoflavone glycosides and aglycon isoflavones, the isoflavone glycoside and aglycon isoflavone were quantitatively determined according to a calibration curve method. By the way, unless otherwise stated, the measuring conditions of HPLC herein mean those described in the example.

[2] = test system: Diglycosidase derived from A. fumigatus; assay: as above; type: biochemical, Aspergillus fumigatus; design: unit not given here; details: 55 °C, pH 4.0
Procedure: as §1, §2, §3

[3] = test system: β-Glucosidase derived from almond; assay: as above; type: biochemical; design: unit not given here; details: 55 °C, pH 4.0
Procedure: as §1, §2, §3

[4] = test system: β-Xylosidase derived from pectinase G; assay: as above; type: biochemical; design: unit not given here; details: 55 °C, pH 4.0
Procedure: as §1, §2, §3

Purified diglycosidase = assay: Influence of free glucose on diglycosidase activity; type: biochemical, Penicillium multicolor IAM7153; details: isolated aglycon amount at glucose 0% and 0.5 hour = 100%
Procedure: Purified diglycosidase was diluted with 20 mM acetate buffer of pH 4.0 to prepare a 0.75 AU/mL enzyme solution.
With a glucose solution was mixed 10 μL of each 2 mM substrate solution described in Example 2, and 20 mM acetate buffer of pH 4.0 was added thereto to be a liquid volume of 210 μL. Further, 40 μL of the enzyme solution was added and reaction was carried out at a final liquid volume of 250 μL. Adjustment of the glucose solution to be added allows glucose to exist in the reaction mixture in the range of 0 to 20%. The reaction was carried out at 55° C. and the existence of isoflavone glycosides and aglycon isoflavones was detected by HLPC at 0, 0.5, 1, and 3 hours of the reaction.

SMILES | aglycon ([1]; Reaction time 0 h) | glucoside ([1]; Reaction time 0 h) | aglycon ([1]; Reaction time 1 h) | glucoside ([1]; Reaction time 1 h) | aglycon ([1]; Reaction time 3 h) | glucoside ([1]; Reaction time 3 h) | aglycon ([1]; Reaction time 6 h) | glucoside ([1]; Reaction time 6 h) | aglycon ([2]; Reaction time 0 h) | glucoside ([2]; Reaction time 0 h) | aglycon ([2]; Reaction time 1 h) | glucoside ([2]; Reaction time 1 h) | aglycon ([2]; Reaction time 3 h) | glucoside ([2]; Reaction time 3 h) | aglycon ([2]; Reaction time 6 h) | glucoside ([2]; Reaction time 6 h) | aglycon ([3]; Reaction time 0 h) | glucoside ([3]; Reaction time 0 h) | aglycon ([3]; Reaction time 1 h) | glucoside ([3]; Reaction time 1 h) | also measured
COc1cc2c(=O)c(-c3ccc(O)cc3)coc2cc1O[C@@H]1O[C@H](COC(=O)CC(=O)O)[C@@H](O)[C@H](O)[C@H]1O [malonylglycitin, 6″-O-malonylglycitin] | 0 | 100 | 78.3 | 21.7 | 84.5 | 15.5 | 86 | 14 | 0 | 100 | 0.4 | 99.6 | 0.8 | 99.2 | 1.4 | 98.6 | 0 | 100 | 0 | 100 | aglycon ([3]; Reaction time 3 h): 0; glucoside ([3]; Reaction time 3 h): 100; aglycon ([3]; Reaction time 6 h): 0; glucoside ([3]; Reaction time 6 h): 100; aglycon ([4]; Reaction time 0 h): 0; glucoside ([4]; Reaction time 0 h): 100; aglycon ([4]; Reaction time 1 h): 0; glucoside ([4]; Reaction time 1 h): 100; aglycon ([4]; Reaction time 3 h): 0; glucoside ([4]; Reaction time 3 h): 100; aglycon ([4]; Reaction time 6 h): 0.4; glucoside ([4]; Reaction time 6 h): 99.6; Isolation of isoflavone aglycons by diglycosidase in presence of glucose (Purified diglycosidase; Glucose concentration 0 %): 100%; Isolation of isoflavone aglycons by diglycosidase in presence of glucose (Purified diglycosidase; Glucose concentration 2 %): 121.4%; Isolation of isoflavone aglycons by diglycosidase in presence of glucose (Purified diglycosidase; Glucose concentration 4 %): 127.6%; Isolation of isoflavone aglycons by diglycosidase in presence of glucose (Purified diglycosidase; Glucose concentration 8 %): 128.6%; Isolation of isoflavone aglycons by diglycosidase in presence of glucose (Purified diglycosidase; Glucose concentration 20 %): 116.4%
O=c1c(-c2ccc(O)cc2)coc2cc(O[C@@H]3O[C@H](CO)[C@@H](O)[C@H](O)[C@H]3O)ccc12 [daidzin] | 0.9 | 99.1 | 70.1 | 29.9 | 81.8 | 18.2 | 88.5 | 11.5 | 0.9 | 99.1 | 7.1 | 92.9 | 14.7 | 85.3 | 24.8 | 75.2 | 0.9 | 99.1 | 9.1 | 90.9 | aglycon ([3]; Reaction time 3 h): 10.8; glucoside ([3]; Reaction time 3 h): 89.2; aglycon ([3]; Reaction time 6 h): 11.3; glucoside ([3]; Reaction time 6 h): 88.7; aglycon ([4]; Reaction time 0 h): 0.9; glucoside ([4]; Reaction time 0 h): 99.1; aglycon ([4]; Reaction time 1 h): 9.1; glucoside ([4]; Reaction time 1 h): 90.9; aglycon ([4]; Reaction time 3 h): 24; glucoside ([4]; Reaction time 3 h): 76; aglycon ([4]; Reaction time 6 h): 42.1; glucoside ([4]; Reaction time 6 h): 57.9; Isolation of isoflavone aglycons by diglycosidase in presence of glucose (Purified diglycosidase; Glucose concentration 0 %): 100%; Isolation of isoflavone aglycons by diglycosidase in presence of glucose (Purified diglycosidase; Glucose concentration 2 %): 128.1%; Isolation of isoflavone aglycons by diglycosidase in presence of glucose (Purified diglycosidase; Glucose concentration 4 %): 126%; Isolation of isoflavone aglycons by diglycosidase in presence of glucose (Purified diglycosidase; Glucose concentration 8 %): 129.1%; Isolation of isoflavone aglycons by diglycosidase in presence of glucose (Purified diglycosidase; Glucose concentration 20 %): 111.9%
O=c1c(-c2ccc(O)cc2)coc2cc(O[C@@H]3O[C@H](CO)[C@@H](O)[C@H](O)[C@H]3O)cc(O)c12 [genistin] | 0 | 100 | 0 | 100 | 0 | 100 | 0 | 100 | 0 | 100 | 0 | 100 | 0 | 100 | 0 | 100 | 0 | 100 | 9.4 | 90.6 | efficiency of decomposing by diglycosidase with combined use of β-glucosidase ([1]; combined use of β-glucosidase in addition to the enzyme): further enhanced; aglycon ([3]; Reaction time 3 h): 11.4; glucoside ([3]; Reaction time 3 h): 88.6; aglycon ([3]; Reaction time 6 h): 11.8; glucoside ([3]; Reaction time 6 h): 88.2; aglycon ([4]; Reaction time 0 h): 0; glucoside ([4]; Reaction time 0 h): 100; aglycon ([4]; Reaction time 1 h): 1.5; glucoside ([4]; Reaction time 1 h): 98.5; aglycon ([4]; Reaction time 3 h): 1.8; glucoside ([4]; Reaction time 3 h): 98.2; aglycon ([4]; Reaction time 6 h): 1.8; glucoside ([4]; Reaction time 6 h): 98.2
